{"source": "patent US8097654B2", "about": "“Radiolabeled 3-[3-(benzoyl-amido)benzyloxy]aspartic acid derivative and method of producing the same” (Suntory Holdings Limited, priority 2004, dated 2012)", "key": {"[1]": {"test": "Biodistribution of radioactivity after intravenous injection in mice", "settings": "mean ± S.D."}, "[2]": {"test": "Octanol-water partition coefficient (Log P)", "type": "physicochemical", "settings": "octanol/phosphate buffer, mean ± S.D.", "procedure": "Equal amounts of octanol and a phosphate buffer were mixed together and [^125I]I-BzA-TBOA was added thereto. After repeatedly shaking for 1 minute and allowing to stand for 1 minute three times, the mixture was allowed to stand for 20 minutes. After repeating this procedure three times, it was centrifuged (1,000×g, 10 min, 4° C.) and the radioactivity of each layer was measured. Thus, the partition coefficient was calculated (Table 1)."}, "[3]": {"settings": "2 min after i.v. administration"}, "[4]": {"settings": "5 min after i.v. administration"}, "[5]": {"settings": "15 min after i.v. administration"}, "[6]": {"settings": "30 min after i.v. administration"}}}
{"smiles": "N[C@H](C(=O)O)[C@H](OCc1cccc(NC(=O)c2ccc([125I])cc2)c1)C(=O)O", "note": "[[^125I]I-BzA-TBOA, (2S,3S)-3-[3-(4-[^125I]iodobenzoylamino)benzyloxy]aspartic acid]", "values": [{"measurement": "Radioactivity in Blood", "setting": "[1]; [3]", "value": "2.29 ± 0.23 percentage of injection dose per gram of each tissue"}, {"measurement": "Radioactivity in Blood", "setting": "[1]; [4]", "value": "1.58 ± 0.25 percentage of injection dose per gram of each tissue"}, {"measurement": "Radioactivity in Blood", "setting": "[1]; [5]", "value": "0.67 ± 0.19 percentage of injection dose per gram of each tissue"}, {"measurement": "Radioactivity in Blood", "setting": "[1]; [6]", "value": "0.40 ± 0.12 percentage of injection dose per gram of each tissue"}, {"measurement": "Radioactivity in Blood", "setting": "[1]; 1 hr after i.v. administration", "value": "0.16 ± 0.04 percentage of injection dose per gram of each tissue"}, {"measurement": "Radioactivity in Blood", "setting": "[1]; 2 hr after i.v. administration", "value": "0.07 ± 0.01 percentage of injection dose per gram of each tissue"}, {"measurement": "Radioactivity in Brain", "setting": "[1]; [3]", "value": "0.21 ± 0.09 percentage of injection dose per gram of each tissue"}, {"measurement": "Radioactivity in Brain", "setting": "[1]; [4]", "value": "0.19 ± 0.18 percentage of injection dose per gram of each tissue"}, {"measurement": "Radioactivity in Brain", "setting": "[1]; [5]", "value": "0.06 ± 0.09 percentage of injection dose per gram of each tissue"}, {"measurement": "Radioactivity in Brain", "setting": "[1]; [6]", "value": "0.10 ± 0.13 percentage of injection dose per gram of each tissue"}, {"measurement": "Radioactivity in Brain", "setting": "[1]; 1 hr after i.v. administration", "value": "0.01 ± 0.02 percentage of injection dose per gram of each tissue"}, {"measurement": "Radioactivity in Brain", "setting": "[1]; 2 hr after i.v. administration", "value": "0.18 ± 0.23 percentage of injection dose per gram of each tissue"}, {"measurement": "Radioactivity in Heart", "setting": "[1]; [3]", "value": "0.93 ± 0.06 percentage of injection dose per gram of each tissue"}, {"measurement": "Radioactivity in Heart", "setting": "[1]; [4]", "value": "0.64 ± 0.13 percentage of injection dose per gram of each tissue"}, {"measurement": "Radioactivity in Heart", "setting": "[1]; [5]", "value": "0.33 ± 0.04 percentage of injection dose per gram of each tissue"}, {"measurement": "Radioactivity in Heart", "setting": "[1]; [6]", "value": "0.19 ± 0.14 percentage of injection dose per gram of each tissue"}, {"measurement": "Radioactivity in Heart", "setting": "[1]; 1 hr after i.v. administration", "value": "0.04 ± 0.02 percentage of injection dose per gram of each tissue"}, {"measurement": "Radioactivity in Heart", "setting": "[1]; 2 hr after i.v. administration", "value": "0.00 ± 0.00 percentage of injection dose per gram of each tissue"}, {"measurement": "Radioactivity in Intestine", "setting": "[1]; [3]", "value": "1.76 ± 0.15 percentage of injection dose per gram of each tissue"}, {"measurement": "Radioactivity in Intestine", "setting": "[1]; [4]", "value": "4.51 ± 1.36 percentage of injection dose per gram of each tissue"}, {"measurement": "Radioactivity in Intestine", "setting": "[1]; [5]", "value": "12.28 ± 0.72 percentage of injection dose per gram of each tissue"}, {"measurement": "Radioactivity in Intestine", "setting": "[1]; [6]", "value": "15.91 ± 1.65 percentage of injection dose per gram of each tissue"}, {"measurement": "Radioactivity in Intestine", "setting": "[1]; 1 hr after i.v. administration", "value": "20.05 ± 6.29 percentage of injection dose per gram of each tissue"}, {"measurement": "Radioactivity in Intestine", "setting": "[1]; 2 hr after i.v. administration", "value": "23.69 ± 1.58 percentage of injection dose per gram of each tissue"}, {"measurement": "Radioactivity in Kidney", "setting": "[1]; [3]", "value": "15.17 ± 2.34 percentage of injection dose per gram of each tissue"}, {"measurement": "Radioactivity in Kidney", "setting": "[1]; [4]", "value": "16.02 ± 0.57 percentage of injection dose per gram of each tissue"}, {"measurement": "Radioactivity in Kidney", "setting": "[1]; [5]", "value": "14.47 ± 2.59 percentage of injection dose per gram of each tissue"}, {"measurement": "Radioactivity in Kidney", "setting": "[1]; [6]", "value": "8.29 ± 2.63 percentage of injection dose per gram of each tissue"}, {"measurement": "Radioactivity in Kidney", "setting": "[1]; 1 hr after i.v. administration", "value": "2.08 ± 0.15 percentage of injection dose per gram of each tissue"}, {"measurement": "Radioactivity in Kidney", "setting": "[1]; 2 hr after i.v. administration", "value": "1.03 ± 0.23 percentage of injection dose per gram of each tissue"}, {"measurement": "Radioactivity in Liver", "setting": "[1]; [3]", "value": "28.71 ± 1.97 percentage of injection dose per gram of each tissue"}, {"measurement": "Radioactivity in Liver", "setting": "[1]; [4]", "value": "22.52 ± 4.43 percentage of injection dose per gram of each tissue"}, {"measurement": "Radioactivity in Liver", "setting": "[1]; [5]", "value": "11.11 ± 0.24 percentage of injection dose per gram of each tissue"}, {"measurement": "Radioactivity in Liver", "setting": "[1]; [6]", "value": "4.96 ± 1.65 percentage of injection dose per gram of each tissue"}, {"measurement": "Radioactivity in Liver", "setting": "[1]; 1 hr after i.v. administration", "value": "1.95 ± 0.46 percentage of injection dose per gram of each tissue"}, {"measurement": "Radioactivity in Liver", "setting": "[1]; 2 hr after i.v. administration", "value": "1.50 ± 0.43 percentage of injection dose per gram of each tissue"}, {"measurement": "Radioactivity in Lung", "setting": "[1]; [3]", "value": "3.11 ± 0.22 percentage of injection dose per gram of each tissue"}, {"measurement": "Radioactivity in Lung", "setting": "[1]; [4]", "value": "2.44 ± 0.59 percentage of injection dose per gram of each tissue"}, {"measurement": "Radioactivity in Lung", "setting": "[1]; [5]", "value": "1.39 ± 0.12 percentage of injection dose per gram of each tissue"}, {"measurement": "Radioactivity in Lung", "setting": "[1]; [6]", "value": "0.64 ± 0.42 percentage of injection dose per gram of each tissue"}, {"measurement": "Radioactivity in Lung", "setting": "[1]; 1 hr after i.v. administration", "value": "0.26 ± 0.06 percentage of injection dose per gram of each tissue"}, {"measurement": "Radioactivity in Lung", "setting": "[1]; 2 hr after i.v. administration", "value": "0.10 ± 0.02 percentage of injection dose per gram of each tissue"}, {"measurement": "Radioactivity in Pancreas", "setting": "[1]; [3]", "value": "2.10 ± 0.24 percentage of injection dose per gram of each tissue"}, {"measurement": "Radioactivity in Pancreas", "setting": "[1]; [4]", "value": "2.13 ± 0.26 percentage of injection dose per gram of each tissue"}, {"measurement": "Radioactivity in Pancreas", "setting": "[1]; [5]", "value": "0.94 ± 0.02 percentage of injection dose per gram of each tissue"}, {"measurement": "Radioactivity in Pancreas", "setting": "[1]; [6]", "value": "0.33 ± 0.23 percentage of injection dose per gram of each tissue"}, {"measurement": "Radioactivity in Pancreas", "setting": "[1]; 1 hr after i.v. administration", "value": "0.10 ± 0.06 percentage of injection dose per gram of each tissue"}, {"measurement": "Radioactivity in Pancreas", "setting": "[1]; 2 hr after i.v. administration", "value": "0.06 ± 0.04 percentage of injection dose per gram of each tissue"}, {"measurement": "Radioactivity in Spleen", "setting": "[1]; [3]", "value": "1.11 ± 0.12 percentage of injection dose per gram of each tissue"}, {"measurement": "Radioactivity in Spleen", "setting": "[1]; [4]", "value": "0.65 ± 0.12 percentage of injection dose per gram of each tissue"}, {"measurement": "Radioactivity in Spleen", "setting": "[1]; [5]", "value": "0.30 ± 0.04 percentage of injection dose per gram of each tissue"}, {"measurement": "Radioactivity in Spleen", "setting": "[1]; [6]", "value": "0.11 ± 0.07 percentage of injection dose per gram of each tissue"}, {"measurement": "Radioactivity in Spleen", "setting": "[1]; 1 hr after i.v. administration", "value": "0.03 ± 0.04 percentage of injection dose per gram of each tissue"}, {"measurement": "Radioactivity in Spleen", "setting": "[1]; 2 hr after i.v. administration", "value": "0.03 ± 0.03 percentage of injection dose per gram of each tissue"}, {"measurement": "Radioactivity in Stomach", "setting": "[1]; [3]", "value": "1.12 ± 0.20 percentage of injection dose per gram of each tissue"}, {"measurement": "Radioactivity in Stomach", "setting": "[1]; [4]", "value": "0.78 ± 0.22 percentage of injection dose per gram of each tissue"}, {"measurement": "Radioactivity in Stomach", "setting": "[1]; [5]", "value": "0.88 ± 0.13 percentage of injection dose per gram of each tissue"}, {"measurement": "Radioactivity in Stomach", "setting": "[1]; [6]", "value": "0.58 ± 0.40 percentage of injection dose per gram of each tissue"}, {"measurement": "Radioactivity in Stomach", "setting": "[1]; 1 hr after i.v. administration", "value": "0.74 ± 0.80 percentage of injection dose per gram of each tissue"}, {"measurement": "Radioactivity in Stomach", "setting": "[1]; 2 hr after i.v. administration", "value": "0.48 ± 0.19 percentage of injection dose per gram of each tissue"}, {"measurement": "Octanol/water partition coefficient (Log P)", "setting": "[2]; PH 3.0", "value": "0.641 ± 0.006"}, {"measurement": "Octanol/water partition coefficient (Log P)", "setting": "[2]; PH 7.0", "value": "−0.821 ± 0.003"}, {"measurement": "Octanol/water partition coefficient (Log P)", "setting": "[2]; PH 7.4", "value": "−0.849 ± 0.006"}, {"measurement": "Octanol/water partition coefficient (Log P)", "setting": "[2]; PH 8.0", "value": "−0.936 ± 0.007"}]}
